# Test results: patent publication US20140309296A1, “BUDIODARONE FORMULATIONS” (Armetheon, Inc., priority 2013, published 2014)
# Read-outs that look alike come from different tables or passages of the source.
# Columns and labels:
# [1] = Solubility of budiodarone tartrate in water containing various amounts of benzyl alcohol (Example 3); assay type: physicochemical
# Method: Three series of samples were prepared. […] The vials were then capped and the mixtures were vortexed on a VWR Genie 2 vortexer at maximum speed for 3×10 sec duration. The final concentrations of budiodarone were 25 mg/ml, 50 mg/ml, and 100 mg/ml in water containing benzyl alcohol from 0.5% to 11% v/v. The vials were kept in the dark for 24 hours and analyzed by HPLC as per Example 1 Conditions 1.
# The results are shown in FIG. 1, where the amount of budiodarone in solution is plotted as a function of the benzyl alcohol concentration. […] For example, at 25 mg/ml, budiodarone is soluble in approximately 1.5% to 4.5% v/v of benzyl alcohol. At 50 mg/ml, budiodarone is soluble in approximately 3% to 6% benzyl alcohol. At 100 mg/ml, budiodarone is soluble in approximately 4% to 8% benzyl alcohol.
# [2] = Solubility of budiodarone tartrate and benzyl alcohol in solvents of different ionic strengths (Example 4); assay type: physicochemical; conditions: 5/1 benzyl alcohol, nominal 25 mg/ml, 1 hour
# Method: To find out, five vials, each one containing budiodarone tartrate (200 mg, 0.234 mmoles) and benzyl alcohol (122 μl, 1.173 mmoles) were prepared. The molar ratio was therefore 5/1. To each of these vials was added 4 ml of water and the vials were vortexed, resulting in clear solutions containing 50 mg/ml of budiodarone tartrate and benzyl alcohol (molar ratio of 5/1). Then, 4 ml of one of the following solvents was added: 30 mM acetate buffer pH 5.2, 30 mM phosphate buffer saline pH 7.4, 30 mM Tris.HCl buffer pH 7.5, 1.8% sodium chloride (saline solution), and 10% dextrose solution (D10W) resulting in 15 mM concentration of buffer, 0.9% concentration of sodium chloride, and 5% concentration of dextrose (D5W), respectively.
# Upon addition of an ionic solvent, all the samples except the D5W sample became turbid. The vials were then vortexed at high speed (3×10 sec) and left to stand for 1 hour. Then they were vortexed again (3×10 sec) and a 1-ml aliquot from each vial was centrifuged at 13,000 rpm for 10 min. A small aliquot of the clear supernatant was diluted 25-fold with methanol and analyzed by HPLC (Conditions 3). The remaining concentrations of budiodarone in the samples were as follows: […]
# [3] = Pre-formed 3/1 benzyl alcohol/budiodarone composition, solubility in water (Example 7); assay type: physicochemical; conditions: 25 mg/ml budiodarone, 0.92% (v/v) benzyl alcohol, pre-mixed before water is added
# Method: A clear solution containing 25 mg/ml of budiodarone and 0.92% (v/v) of benzyl alcohol (molar ratio of 3/1) was prepared. In this example, the association between budiodarone and benzyl alcohol was pre-formed before water is added.
# Methanol (5 ml), budiodarone tartrate (250 mg, 0.293 mmole), and benzyl alcohol (92 μl, 0.880 mmole) were mixed. In this mixture, the molar ratio of benzyl alcohol to budiodarone was 3/1. Methanol was removed at 36° C. under partial vacuum (30 mm Hg) to form a clear oily residue. The residue was left at room temperature under high vacuum (1 mmHg) for 1 hour to remove traces of methanol. Water (10 ml), is then added, and the sample is vortexed for 3×10 sec.
# In order to confirm the solubility of budiodarone and the molar ratio between benzyl alcohol and budiodarone, the sample was analyzed by HPLC. The analysis was performed immediately after preparation of the solution. An aliquot of the solution was centrifuged as described above in order to remove insoluble material.
# [4] = Budiodarone concentration attainable in hyperconcentrated solutions (Examples 16-18); assay type: physicochemical
# Method: The benzyl alcohol/budiodarone tartrate solution is viscous and therefore direct measurement of the budiodarone concentration is difficult. A better way to measure budiodarone concentration in the solution of benzyl alcohol and budiodarone oil or in a hyperconcentrated solution is by using an indirect method. In this example, the volume of the benzyl alcohol/budiodarone mixture was measured, which in turn allowed for the calculation of an accurate budiodarone concentration.
# In each of five vials of accurately known volume, budiodarone tartrate (250 mg) and benzyl alcohol (91 μl) were mixed in order to make a 3/1 mixture (mol/mol). Then the solution was mixed thoroughly in order to make a clear solution. This was aided with the help of warming to 50° C. for 3 minutes in order to reduce the viscosity of the mixture. The weight of the vial containing the 3:1 mixture of benzyl alcohol/budiodarone was then recorded. Vial number 1 was filled with silicon oil of density d=0.964 and weighed again. The difference in weight provided the weight of the silicon oil added. This, divided by the density of the silicon oil provided the volume of silicon oil necessary to fill the vial. The difference with the known volume of the vial represents the volume of the benzyl alcohol/budiodarone mixture. To Vial numbers 2, 3, 4, and 5 was added 50, 100, 200, and 400 μl of water, respectively. The contents of the vials were then thoroughly mixed in order to get hyperconcentrated solutions of different volumes and different budiodarone concentrations. The volumes of these hyperconcentrations using silicon oil were measured as described above.
# The same experiment as Example 16 was replicated, using mixtures of 5/1 ratio (250 mg of budiodarone tartrate and 152 μl of benzyl alcohol) and various volumes of water added. Using the same procedure as Example 16, a maximum calculated budiodarone concentration of 737 mg/ml and a maximum benzyl alcohol concentration of 45% (v/v) were found.
# Similarly, the experiment in Example 16 was replicated, using a 1/1 mixture (250 mg of budiodarone tartrate and 30 μl of benzyl alcohol). A maximum calculated budiodarone concentration of 1,136 mg/ml and a maximum benzyl alcohol concentration of 13.6% (v/v) were found.
# [5] = cited from earlier work
# [6] = cited from earlier work; for tolerability: oral, up to 600 mg BID
# [7] = tested on: patients with paroxysmal atrial fibrillation (PAF); conditions: 12 weeks, cited from earlier work; for median reduction in AFB: compared to placebo
structure (smiles),measurement,setting,value
"CC[C@H](C)OC(=O)Cc1oc2ccccc2c1C(=O)c1cc(I)c(OCCN(CC)CC)c(I)c1 [budiodarone, (1S)-1-methylpropyl 2-(3-{4-[2-(diethylamino)ethoxy]-3,5-diiodobenzoyl}benzofuran-2-yl)acetate]",molar ratio above which budiodarone was not fully soluble in water (phase separation),[1],approximately 11/1
same,lower limit of the molar ratio of benzyl alcohol to budiodarone that forms in solution,[1]; 25-100 mg/ml,approximately 5/1
same,remaining concentration of budiodarone,[2]; 0.9% saline solution,< 1 mg/mL
same,remaining concentration of budiodarone,[2]; Acetate buffer pH5.2 (15 mM),< 1 mg/mL
same,remaining concentration of budiodarone,[2]; D5W,26.6 mg/mL
same,remaining concentration of budiodarone,[2]; Phosphate buffer saline pH 7.4 (15 mM),< 1 mg/mL
same,remaining concentration of budiodarone,[2]; Tris.HCl buffer pH7.5 (15 mM),< 1 mg/mL
same,solubility in water of pre-formed 3/1 molar ratio,[3],water soluble
same,maximum calculated budiodarone concentration,[4]; 1/1 mixture,"1,136 mg/ml"
same,calculated maximum budiodarone concentration,[4]; 3:1 molar ratio of benzyl alcohol/budiodarone,890 mg/mL
same,maximum calculated budiodarone concentration,[4]; 5/1 ratio,737 mg/mL
same,Mean trough level,[5]; 200 mg bid oral,2.4 ± 0.9 ng/mL
same,Mean trough level,[5]; 400 mg bid oral,5.2 ± 1.7 ng/mL
same,Mean trough level,[5]; 600 mg bid oral,13.1 ± 5.6 ng/mL
same,Mean trough level,[5]; 800 mg bid oral,19.8 ± 17.9 ng/mL
same,trough level,[5]; washout,0.3+0.4 ng/mL
same,creatinine,[6]; BUN unchanged,reversible elevation
same,ALT,[6]; appeared to be dose related,"mild, reversible increase"
same,tolerability,[6],safe and well tolerated
same,tolerability,[6]; listed as ATI-2042,well tolerated
same,tissue accumulation,[6]; slit lamp examination at the end of the treatment period,no evidence of budiodarone tissue accumulation
same,corneal deposits,[6]; slit-lamp examinations,No patient treated with ATI-2042 developed corneal deposits
same,median reduction in AFB,[7]; 400 mg BID,54.4%
same,median reduction in AFB,[7]; 600 mg BID,75.5%
same,median reduction in AFB,"[7]; 600 mg BID, listed as Budiodarone",up to 75.5%
same,safety,"[7]; 200, 400 or 600 mg BID",no drug-related SAEs
